Source: patent publication US20260248930A1, “PEPTIDE COMPOSITIONS TARGETING GLYPICAN-3 AND USES THEREOF” (PeptiDream Inc., priority 2023, published 2026)
One block for each molecule: values may come before it. *1 amine or outer side, *2 acyl side, *3 side chain or, on linkers, in order; H or OH if unused. Where a SMILES comes first, the peptide text is derived from it. Bridges are numbered along the chain shown (N, C = ends). [ ]: non-standard residue; d: D form. The star is where a group is joined. ξ: configuration not given here. MeDapCOpipzaa = 3-(4-(carboxymethyl)piperazine-1-carboxamido)-2-(methylamino)propanoic acid, CN([C@@H](CNC(=O)N1CCN(CC(=O)[*:3])CC1)C(=O)[*:2])[*:1]; F4aao = (S)-2-amino-3-(4-(carboxymethoxy)phenyl)propanoic acid, O=C([C@H](Cc1ccc(OCC(=O)[*:3])cc1)N[*:1])[*:2]; MeHseMe = 4-methoxy-2-(methylamino)butanoic acid, COCC[C@@H](C(=O)[*:2])N(C)[*:1]; Phe(4-(1-Me-pyrazol-4-yl)) = Cn1cc(-c2ccc(C[C@H](N)C(=O)O)cc2)cn1; Biotin‑PEG12c = biotin-PEG12c group on the lysine side chain; TMe = O-methyl threonine, CO[C@H](C)[C@H](N[*:1])C(=O)[*:2]; NMeAla(isoquinolin-7-yl) = CN[C@@H](Cc1ccc2ccncc2c1)C(=O)O; 3Pal(6-Ph) = N[C@@H](Cc1ccc(-c2ccccc2)nc1)C(=O)O; Biotin = O=C1N[C@H]2[C@H](CS[C@H]2CCCCC(=O)*)N1; PEG10 = NCCOCCOCCOCCOCCOCCOCCOCCOCCOCCOCCC(=O)O; Phe(4-COOH) = N[C@@H](Cc1ccc(C(=O)O)cc1)C(=O)O; NMe2Nal = CN[C@@H](Cc1ccc2ccccc2c1)C(=O)O; AEF = NCCOc1ccc(C[C@H](N)C(=O)O)cc1; NMeI = CC[C@H](C)[C@H](NC)C(=O)O; NMeQ = CN[C@@H](CCC(N)=O)C(=O)O; NMeK = CN[C@@H](CCCCN)C(=O)O; NMeC = CN[C@@H](CS)C(=O)O; ξNMeC = CNC(CS)C(=O)O

Key:
[1] = molecular target: Human Glypican3-Fc (Homo sapiens, UniProt P51654); experiment: SPR binding to human Glypican3-Fc captured on Protein A chip, Method B-3 (5 concentrations); conditions: SPR method B-3
Method: (§1) A Protein A sensor chip (Cytiva) was inserted into a Biacore T200 (Cytiva), priming was performed three times with a running buffer: HBS-P+, pH 7.4 (Cytiva), and equilibration was carried out at a flow rate of 30 μL/min. Glypican3-Fc was allowed to react for 60 seconds at a flow rate of 10 μL/min. After capturing human Glypican3-Fc, a peptide solution prepared to 10 mM in DMSO solution was diluted with a running buffer to a final concentration of 10 μM. […] Using the above samples, peptide kinetics for Glypican3 was obtained by SPR measurement. Kinetics evaluation of Glypican3 was performed by SPR measurements at a flow rate of 10 μL/min, setting the association time to 120 seconds and the disassociation time to 600 seconds.
(§2) The obtained data by Method B-1, Method B-2, Method B-3, and Method B-4 were analyzed by follow. Single Cycle Kinetics was used as the kinetics evaluation model, and curve fitting was performed using Biacore T200 Evaluation Software Version 3.0 (Cytiva).

[2] = tested on: HepG2 cells (glypican 3 expressed on the cell surface); experiment: Flow cytometry, biotinylated peptides followed by SAPE, HepG2; assay type: cell-based, human; conditions: biotinylated peptide at 100 nM followed by SAPE (1:250), on ice; compared with SK-Hep1 negative control; FIG. 2
Method: (§3) Macrocyclic peptide-conjugates in this invention were tested in cells expressing glypican 3 and analyzed by flow cytometry.
(§4) HepG2 (human hepatocellular carcinoma) and SK-HEP-1 (human hepatic adenocarcinoma) cell lines were purchased from the American Type Culture Collection (ATCC; Manassas, VA). Huh-7 (human hepatoblastoma) cell line was purchased from the Japanese Collection of Research Bioresources Cell Bank (JCRB Cell Bank, Osaka, Japan). HepG2 and SK-HEP-1 were grown in EMEM (FUJIFILM Wako Pure Chemical Corporation, 055-08975) with 10% fetal bovine serum (FBS; Thermo Fisher Scientific, 10270106) and 0.1% gentamicin (NACALAI TESQUE, 11980-14). Huh-7 was grown in DMEM (Thermo Fisher Scientific, 10567014) with 10% FBS and 0.1% gentamicin.
(§5) HepG2, SK-HEP-1 and Huh-7 cells were collected from the culture dish and stained with biotinylated peptides at 100 nM followed by Streptavidin, R-Phycoerythrin Conjugate (SAPE; Thermo Fisher Scientific, S866) (1:250). Cells were washed with phosphate-buffered saline (PBS; FUJIFILM Wako Pure Chemical Corporation, 043-29791) containing 0.5% FBS after addition of peptides or SAPE. All staining procedures were performed on ice. Samples were measured using CytoFLEX S (Beckman Coulter) and CytExpert ver2.4 software. All data were analyzed using FlowJo™ (BD Bioscience). […]

[3] = tested on: Huh-7 cells (glypican 3 expressed on the cell surface); experiment: Flow cytometry, biotinylated peptides followed by SAPE, Huh-7; assay type: cell-based, human; conditions: biotinylated peptide at 100 nM followed by SAPE (1:250), on ice; compared with SK-Hep1 negative control; FIG. 3
Method: as §3, §4, §5

[4] = molecular target: T1, human Glypican3 (Homo sapiens, UniProt P51654); experiment: SPR binding to immobilized human Glypican3, Method B-1 (CM3 chip, amine coupling); conditions: SPR method B-1
T1 construct: purchased R&D systems 2119-GP
Method: Macrocyclic peptides in this invention were tested for binding to Glypican-3 protein by SPR.
A CM3 sensor chip (Cytiva) was inserted into a Biacore T200 (Cytiva), primed three times with a running buffer: HBS-P+, pH 7.4 (Cytiva), and equilibrated at a flow rate of 30 μL/min. Ligand immobilization was performed at a flow rate of 10 μL/min. 50 μL each of 60 mM EDC solution (Cytiva) and 650 mM NHS solution (Cytiva) were mixed, and then reacted at a flow rate of 10 μL/min for 420 seconds. 150 μL of 0.2 μM human Glypican3 (R&D systems, catalog number: 2119-GP) solution which was prepared by diluting with 10 mM acetic acid solution (pH 5.0), was reacted at a flow rate of 10 μL/min for 420 seconds, and Glypican3 was immobilized on the CM3 sensor chip. After immobilization, 1.0 M ethanolamine aqueous solution (Cytiva) was allowed to react for 420 seconds at a flow rate of 10 μL/min for capping. A peptide lysate prepared to 10 mM in DMSO solution was diluted with running buffer to a final concentration of 10 μM peptide lysate. After that, 5 serial dilution series (100 nM, 50 nM, 25 nM, 10 nM, 5 nM) of peptide solutions were prepared. Using the above samples, peptide kinetics for Glypican3 was obtained by SPR measurement. […]
The obtained data by Method B-1, Method B-2, Method B-3, and Method B-4 were analyzed by follow. […]

[5] = molecular target: Human Glypican3-Fc (ACRO Biosystems, GP3-H5258) (human) (UniProt P51654); experiment: SPR Biacore T200, Method B-3: Glypican3-Fc captured on Protein A chip, single cycle kinetics
[6] = molecular target: T2, Human Glypican3-Fc (ACRO Biosystems, GP3-H5258) (human, UniProt P51654 25-559); experiment: as above
T2 construct: Bought Fc fusion, captured by anti-human IgG (Fc) antibody (Method B-2) or on a Protein A chip (Methods B-3, B-4); Supplier and catalogue number are printed only in Method B-2; B-3 and B-4 say only Glypican3-Fc / human Glypican3-Fc; not shown: Fc part of the bought fusion protein
Method: as §1, §2

Chain of Human Glypican3-Fc (ACRO Biosystems, GP3-H5258) (human) (P51654 25-559 limits assumed): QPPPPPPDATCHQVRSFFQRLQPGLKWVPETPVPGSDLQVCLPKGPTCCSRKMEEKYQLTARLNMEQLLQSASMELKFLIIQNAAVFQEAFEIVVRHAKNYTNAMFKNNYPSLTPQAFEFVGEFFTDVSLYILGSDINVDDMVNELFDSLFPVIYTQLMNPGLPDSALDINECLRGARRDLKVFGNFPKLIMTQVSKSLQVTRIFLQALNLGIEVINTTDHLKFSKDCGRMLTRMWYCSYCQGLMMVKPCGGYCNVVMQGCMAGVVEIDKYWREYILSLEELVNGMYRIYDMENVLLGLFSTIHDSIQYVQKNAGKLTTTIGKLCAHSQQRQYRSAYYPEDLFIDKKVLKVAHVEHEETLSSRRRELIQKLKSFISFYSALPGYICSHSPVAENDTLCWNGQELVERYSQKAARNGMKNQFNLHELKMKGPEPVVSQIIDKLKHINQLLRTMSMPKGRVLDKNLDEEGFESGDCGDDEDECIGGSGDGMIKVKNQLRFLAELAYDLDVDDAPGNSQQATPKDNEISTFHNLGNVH
T1 sequence (P51654 25-554): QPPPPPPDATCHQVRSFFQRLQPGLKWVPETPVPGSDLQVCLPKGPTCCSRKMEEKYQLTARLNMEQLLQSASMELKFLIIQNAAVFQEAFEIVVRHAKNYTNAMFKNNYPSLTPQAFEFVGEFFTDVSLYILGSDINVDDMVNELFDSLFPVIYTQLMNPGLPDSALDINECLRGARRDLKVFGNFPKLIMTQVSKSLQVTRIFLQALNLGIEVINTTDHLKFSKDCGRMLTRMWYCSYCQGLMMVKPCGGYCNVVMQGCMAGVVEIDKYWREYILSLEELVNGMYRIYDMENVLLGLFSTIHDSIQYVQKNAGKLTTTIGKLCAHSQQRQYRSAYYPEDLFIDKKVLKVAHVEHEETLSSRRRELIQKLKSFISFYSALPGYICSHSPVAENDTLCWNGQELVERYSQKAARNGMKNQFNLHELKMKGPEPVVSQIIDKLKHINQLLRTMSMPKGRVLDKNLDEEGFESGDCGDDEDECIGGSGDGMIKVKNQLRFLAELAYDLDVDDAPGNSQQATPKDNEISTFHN
T2 sequence (P51654 25-559 limits assumed): as the sequence (P51654 25-559 limits assumed) above

- Kd [5]: 1 nM
Molecule: {CH2CO}-[MeDapCOpipzaa][MeHseMe]D[MeDapCOpipzaa][Phe(4-COOH)][TMe]I[AEF][NMeAla(isoquinolin-7-yl)]G[3Pal(6-Ph)][NMeC]-NH2 (thioether N-12) [macrocyclic peptide of SEQ ID NO: 54]

- Kd [6]: 1.04 nM
Molecule: {CH2CO}-[NMeK](Biotin‑PEG12c)[NMeI]D[NMeQ][Phe(4-COOH)]II[F4aao][NMeAla(isoquinolin-7-yl)]G[3Pal(6-Ph)][NMeC]-NH2 (thioether N-12) [macrocyclic peptide-biotin conjugate PLB-64 (SEQ ID NO: 76)]

Continued, molecule first:

Molecule: CC[N+]1=C(/C=C/C=C/C=C2/N(CCCCCC(=O)NCCCC[C@H](NC(=O)CCOCCOCCOCCOCCOCCOCCOCCOCCOCCOCCNC(=O)CNC(C)=O)C(N)=O)c3ccc(S(=O)(=O)O)cc3C2(C)C)C(C)(C)c2cc(S(=O)(=O)[O-])ccc21 [C-M-64, 2-[(1E,3E)-5-[(2E)-1-(5-{[(5)-5-carbamoyl-5-[1-(2-acetamidoacetamido)-3,6,9,12,15,18,21,24,27,30-decaoxatritriacontan-33-amido]pentyl]carbamoyl}pentyl)-3,3-dimethyl-5-sulfo-2,3-dihydro-1H-indol-2-ylidene]penta-1,3-dien-1-yl]-1-ethyl-3,3-dimethyl-3H-indol-1-ium-5-sulfonate, reference compound]
- Kd [1]: < 1 nM

Molecule: CC[C@H](C)[C@@H]1NC(=O)[C@H](Cc2ccc(C(=O)O)cc2)NC(=O)[C@H](CCC(N)=O)N(C)C(=O)[C@H](CC(=O)O)NC(=O)[C@H]([C@@H](C)CC)N(C)C(=O)[C@H](CCCCNC(C)=O)N(C)C(=O)CSCC(C(=O)NCC(=O)NCCOCCOCCOCCOCCOCCOCCOCCOCCOCCOCCC(=O)N[C@@H](CCCCNC(=O)CCCC[C@@H]2SC[C@@H]3NC(=O)N[C@@H]32)C(N)=O)N(C)C(=O)[C@H](Cc2ccc(-c3ccccc3)nc2)NC(=O)CNC(=O)[C@H](Cc2ccc3ccncc3c2)N(C)C(=O)[C@H](Cc2ccc(O)cc2)NC(=O)[C@H]([C@@H](C)CC)NC1=O (some centres unmarked) [PLB-60] ({CH2CO}-[NMeK](Ac)[NMeI]D[NMeQ][Phe(4-COOH)]IIY[NMeAla(isoquinolin-7-yl)]G[3Pal(6-Ph)][ξNMeC]G[PEG10]K(Biotin)-NH2; thioether N-12)
- comparative staining of HepG2 by flow cytometry [2]: specific binding to both glypican expressing cells and SAPE
- comparative staining of Huh-7 by flow cytometry [3]: specific binding to both glypican expressing cells and SAPE

Molecule: CC[C@H](C)[C@@H]1NC(=O)[C@H]([C@@H](C)OC)NC(=O)[C@H](Cc2ccc(C(=O)O)cc2)NC(=O)[C@H](CCC(N)=O)N(C)C(=O)[C@H](CC(=O)O)NC(=O)[C@H](CCC(N)=O)N(C)C(=O)[C@H](CCC(N)=O)N(C)C(=O)CSC[C@@H](C(N)=O)N(C)C(=O)[C@H](Cc2ccc(-c3cnn(C)c3)cc2)NC(=O)CNC(=O)[C@H](Cc2ccc3ccccc3c2)N(C)C(=O)[C@H](Cc2ccc(C(=O)O)cc2)NC1=O [compound 18] ({CH2CO}-[NMeQ][NMeQ]D[NMeQ][Phe(4-COOH)]T(Me)I[Phe(4-COOH)][NMe2Nal]G[Phe(4-(1-Me-pyrazol-4-yl))][NMeC]-NH2; thioether N-12)
- Kd [4]: 1.8 nM

Molecule: CC[C@H](C)[C@@H]1NC(=O)[C@H]([C@@H](C)OC)NC(=O)[C@H](Cc2ccc(C(=O)O)cc2)NC(=O)[C@H](CNC(=O)N2CCN(CC(=O)O)CC2)N(C)C(=O)[C@H](CC(=O)O)NC(=O)[C@H](CCOC)N(C)C(=O)[C@H](CCCCNC(=O)N2CCN(CC(=O)O)CC2)N(C)C(=O)CSC[C@@H](C(N)=O)N(C)C(=O)[C@H](Cc2ccc(-c3ccccc3)nc2)NC(=O)CNC(=O)[C@H](Cc2ccc3ccncc3c2)N(C)C(=O)[C@H](Cc2ccc(OCCN)cc2)NC1=O [compound 55]
- Kd [1]: 1.8 nM

Molecule: {CH2CO}-[MeDapCOpipzaa][MeHseMe]D[MeDapCOpipzaa][Phe(4-COOH)][TMe]I[AEF][NMe2Nal]G[3Pal(6-Ph)][NMeC]-NH2 (thioether N-12) [macrocyclic peptide of SEQ ID NO: 50]
- Kd [5]: 0.3 nM
